According to patent US20210054320A1, “NEURON CULTIVATION DEVICE, NEURON CULTIVATING METHOD, CULTIVATED NEURON, ANALYSIS AND IDENTIFICATION OF PROTEIN IN AXON BUNDLE, AND USAGE OF CULTIVATED NEURON” (THE FOUNDATION FOR THE PROMOTION OF INDUSTRIAL SCIENCE, priority 2016, published 2021):

Legend:
Assay type in all cases: cell-based
[1] = system: motoneurons derived from human iPS cells (409B2 cell lines); test: calcium imaging of motoneuron spheroid with axon bundle after KCl stimulation; settings: 1 [mol] of KCl provided to the cell spheroid after fluorescent treatment
From the text: FIG. 13 is a set of photographs showing motoneurons used for calcium imaging. In FIG. 13, (a) is a photograph of a spheroid with a bundle of axons outside the cultivation plate before adding calcium, (b) is a photograph of a spheroid with a bundle of axons outside the cultivation plate after adding calcium. In the present experiment, motoneurons derived from human iPS cells (409B2 cell lines) were used. The cell spheroids of the motoneurons were inoculated in the first chambers 12a and cultivated. The motoneurons and the cell spheroids were gained in the same way as mentioned above and the cultivation was accomplished in the same way as mentioned above. After cultivation, one of the motoneurons with a well grown and extended bundle of axons was extracted or brought out from the module 11 of the cultivation plate 10. Then 1 [mol] of KCl was provided to the cell spheroid, so that fluorescence became intense, as shown in FIG. 13(b), as a result of electrophysiological activity induced by the stimulation of KCl.

[2] = system: motoneurons derived from human iPS cells (409B2 cell lines); test: oxidative stress test, Directionality (orientation of axon) after Tau 1 immunostaining; settings: H2O2 3 hour treatment, PBS washing, culture medium with or without Edaravone; evaluated two days after treatment; highest = negative control
Description: Here, cell body spheroids were produced by inoculating motoneurons derived from human iPS cells (409B2 cell lines) in the nonadherent cultivation plate 10. Then, after 10 days of cultivation, the cell body spheroids were inoculated in the first chamber 12a of the module 11 of the cultivation plate 10. Then, after 30 days of cultivation, the treatments of the following (1)-(3) conditions were accomplished.
(1) control PBS (Phosphate Buffered Saline) washing>>>culture medium
(2) H2O2 3 hour treatment>>>PBS washing>>>culture medium
(3) H2O2 3 hour treatment>>>PBS washing>>>culture medium containing Edaravone
Two days after the treatment, evaluation was done after immunostaining by marker Tau 1. The evaluation item was Directionality, which was the orientation of axon. Specifically, the orientations of objects in FIG. 22 were measured In this case, 0 degree indicated the direction of fluid conduit (channel 13). Since the axons were bundled and extended in the same direction, their morphological changes in the channel 13 could be compared between in case of under oxidative stress, as shown in FIG. 22 (b), and in case of under oxidative stress accompanied by application of antioxidant (Edaravone), which was used as neurological disease drug, as shown in FIG. 22 (c). […]

[3] = system: motoneurons derived from human iPS cells (409B2 cell lines); test: ER stress test on axon bundle (form and orientation of axon); settings: culture fluid including 1.5 [mol] of thapsigargin for 5 hours, evaluated 6 days later, versus untreated
From the text: The first experiment was accomplished to confirm the effect of ER stress against motoneuron using thapsigargin. In the first experiment, motoneurons derived from human iPS cells (409B2 cell lines) were used. The cell body spheroids of the motoneurons were inoculated in the first chambers 12a and cultivated. The motoneurons and the cell body spheroids were gained in the same way as mentioned above and the cultivation was accomplished in the same way as mentioned above. After cultivation, one of the motoneurons with a well grown and extended axon bundle was treated with culture fluid including 1.5 [mol] of thapsigargin for 5 hours. Then, 6 days later, the form of the axon bundle was evaluated, as shown in FIG. 17(b), in comparison with another axon bundle of the motoneurons not treated with any thapsigargin, as shown in FIG. 17(a). It can be said that, when suffering stress, the orientation of the axon becomes low or the axon degenerates.

[Cl-].[K+] [KCl]
electrophysiological activity (fluorescence) of motoneuron including cell spheroid and bundle of axons [1]: became electrophysiologically active

OO [H2O2]
Directionality of the axon bundle in the direction of fluid conduit (0 degree), order among conditions [2]: the third

CC1=NN(c2ccccc2)C(=O)C1 [Edaravone]
Directionality of the axon bundle in the direction of fluid conduit (0 degree), order among conditions [2]: the second

C/C=C(/C)C(=O)O[C@H]1C(C)=C2[C@H]([C@@H]1OC(=O)CCCCCCC)[C@@](C)(OC(C)=O)C[C@H](OC(=O)CCC)[C@@]1(O)[C@H]2OC(=O)[C@@]1(C)O [thapsigargin]
form of the axon bundle under ER stress [3]: became deformed
